# Laboratory results: patent US20250171438A1 (Agios Pharmaceuticals, Inc., priority 2022, published 2025)
# Biological target: T1, human PAH with the R408W mutation (Homo sapiens, UniProt P00439, R408W)
# T1 construct: expressed in transfected cells
# T1 sequence (P00439 1-452 R408W): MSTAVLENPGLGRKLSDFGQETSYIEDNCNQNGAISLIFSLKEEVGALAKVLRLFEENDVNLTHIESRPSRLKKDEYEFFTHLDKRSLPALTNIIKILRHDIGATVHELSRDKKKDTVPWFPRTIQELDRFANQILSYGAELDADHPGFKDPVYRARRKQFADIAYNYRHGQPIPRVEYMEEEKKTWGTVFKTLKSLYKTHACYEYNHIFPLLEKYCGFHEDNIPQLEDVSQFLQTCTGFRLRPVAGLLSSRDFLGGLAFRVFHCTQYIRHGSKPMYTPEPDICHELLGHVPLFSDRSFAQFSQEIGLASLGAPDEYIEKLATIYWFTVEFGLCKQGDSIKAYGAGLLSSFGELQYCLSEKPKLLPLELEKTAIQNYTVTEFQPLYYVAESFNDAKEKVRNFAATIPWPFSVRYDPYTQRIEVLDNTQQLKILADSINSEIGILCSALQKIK
# Test: Cell Based Phenylalanine Flux Assay
# Conditions: A375 cells expressing human R408W PAH; 24 hrs compound incubation; 13C-Tyrosine by LC-MS; average where tested multiple times; read-out: AC50
row,Compound,AC50 [nM]
1,"Cn1ncc(C(=O)N2CCc3[nH]cnc3[C@H]2c2nc3c(F)cccc3s2)c1C(F)F [Example 1743, (S)-(5-(difluoromethyl)-1-methyl-1H-pyrazol-4-yl)(4-(4-fluorobenzo[d]thiazol-2-yl)-6,7-dihydro-1H-imidazo[4,5-c]pyridin-5(4H)-yl)methanone]",500 to 1000
2,"O=C(c1oc(-c2ccc(F)cn2)nc1C(F)F)N1CCc2[nH]cnc2[C@@H]1c1nc2ccccc2s1 [Example 1745, (R)-(4-(benzo[d]thiazol-2-yl)-6,7-dihydro-1H-imidazo[4,5-c]pyridin-5(4H)-yl)(4-(difluoromethyl)-2-(5-fluoropyridin-2-yl)oxazol-5-yl)methanone]",500 to 1000
3,O=C(c1oc(-c2ccc(F)cn2)nc1C(F)F)N1CCc2[nH]cnc2[C@H]1c1nc2ccccc2s1 [Example 1746],< 500
4,"O=C(c1nnc(-c2ccccn2)o1)N1CCc2[nH]cnc2[C@@H]1c1nc2cc(F)ccc2s1 [Example 1747, (R)-(4-(5-fluorobenzo[d]thiazol-2-yl)-6,7-dihydro-1H-imidazo[4,5-c]pyridin-5(4H)-yl)(5-(pyridin-2-yl)-1,3,4-oxadiazol-2-yl)methanone]",500 to 1000
5,"O=C(c1nnc(-c2ccccn2)o1)N1CCc2[nH]cnc2[C@H]1c1nc2cc(F)ccc2s1 [Example 1748, (S)-(4-(5-fluorobenzo[d]thiazol-2-yl)-6,7-dihydro-1H-imidazo[4,5-c]pyridin-5(4H)-yl)(5-(pyridin-2-yl)-1,3,4-oxadiazol-2-yl)methanone]",< 500
6,"C[C@@H]1CN(C(=O)c2nnc(-c3cnn(C)c3)o2)[C@@H](c2nc3ccccc3s2)c2nc[nH]c21 [Example 1749, ((4R,7R)-4-(benzo[d]thiazol-2-yl)-7-methyl-6,7-dihydro-1H-imidazo[4,5-c]pyridin-5(4H)-yl)(5-(1-methyl-1H-pyrazol-4-yl)-1,3,4-oxadiazol-2-yl)methanone]",1000 to 5000
7,"C[C@@H]1CN(C(=O)c2nnc(-c3cnn(C)c3)o2)[C@H](c2nc3ccccc3s2)c2nc[nH]c21 [Example 1750, ((4S,7R)-4-(benzo[d]thiazol-2-yl)-7-methyl-6,7-dihydro-1H-imidazo[4,5-c]pyridin-5(4H)-yl)(5-(1-methyl-1H-pyrazol-4-yl)-1,3,4-oxadiazol-2-yl)methanone]",500 to 1000
8,"C[C@H]1CN(C(=O)c2nnc(-c3cnn(C)c3)o2)[C@@H](c2nc3ccccc3s2)c2nc[nH]c21 [Example 1751, ((4R,7S)-4-(benzo[d]thiazol-2-yl)-7-methyl-6,7-dihydro-1H-imidazo[4,5-c]pyridin-5(4H)-yl)(5-(1-methyl-1H-pyrazol-4-yl)-1,3,4-oxadiazol-2-yl)methanone]",> 5000
9,"C[C@H]1CN(C(=O)c2nnc(-c3cnn(C)c3)o2)[C@H](c2nc3ccccc3s2)c2nc[nH]c21 [Example 1752, ((4S,7S)-4-(benzo[d]thiazol-2-yl)-7-methyl-6,7-dihydro-1H-imidazo[4,5-c]pyridin-5(4H)-yl)(5-(1-methyl-1H-pyrazol-4-yl)-1,3,4-oxadiazol-2-yl)methanone]",500 to 1000
10,"C[C@@H]1CN(C(=O)c2nnc(-c3ccc(F)cn3)o2)[C@@H](c2nc3ccccc3s2)c2nc[nH]c21 [Example 1753, ((4R,7R)-4-(benzo[d]thiazol-2-yl)-7-methyl-6,7-dihydro-1H-imidazo[4,5-c]pyridin-5(4H)-yl)(5-(5-fluoropyridin-2-yl)-1,3,4-oxadiazol-2-yl)methanone]",1000 to 5000
11,"C[C@@H]1CN(C(=O)c2nnc(-c3ccc(F)cn3)o2)[C@H](c2nc3ccccc3s2)c2nc[nH]c21 [Example 1754, ((4S,7R)-4-(benzo[d]thiazol-2-yl)-7-methyl-6,7-dihydro-1H-imidazo[4,5-c]pyridin-5(4H)-yl)(5-(5-fluoropyridin-2-yl)-1,3,4-oxadiazol-2-yl)methanone]",500 to 1000
12,"C[C@H]1CN(C(=O)c2nnc(-c3ccc(F)cn3)o2)[C@@H](c2nc3ccccc3s2)c2nc[nH]c21 [Example 1755, ((4R,7S)-4-(benzo[d]thiazol-2-yl)-7-methyl-6,7-dihydro-1H-imidazo[4,5-c]pyridin-5(4H)-yl)(5-(5-fluoropyridin-2-yl)-1,3,4-oxadiazol-2-yl)methanone]",> 5000
13,"C[C@H]1CN(C(=O)c2nnc(-c3ccc(F)cn3)o2)[C@H](c2nc3ccccc3s2)c2nc[nH]c21 [Example 1756, ((4S,7S)-4-(benzo[d]thiazol-2-yl)-7-methyl-6,7-dihydro-1H-imidazo[4,5-c]pyridin-5(4H)-yl)(5-(5-fluoropyridin-2-yl)-1,3,4-oxadiazol-2-yl)methanone]",1000 to 5000
14,"O=C(c1ccnn1-c1ccccn1)N1CCc2[nH]cnc2[C@H]1c1nc2c(F)cccc2s1 [Example 1757, (S)-(4-(4-fluorobenzo[d]thiazol-2-yl)-6,7-dihydro-1H-imidazo[4,5-c]pyridin-5(4H)-yl)(1-(pyridin-2-yl)-1H-pyrazol-5-yl)methanone]",500 to 1000
15,"Cc1nc(Br)c(C(=O)N2CCc3[nH]cnc3[C@@H]2c2nc3c(F)cccc3s2)o1 [Example 1759, (R)-(4-bromo-2-methyloxazol-5-yl)(4-(4-fluorobenzo[d]thiazol-2-yl)-6,7-dihydro-1H-imidazo[4,5-c]pyridin-5(4H)-yl)methanone]",1000 to 5000
16,Cc1nc(Br)c(C(=O)N2CCc3[nH]cnc3[C@H]2c2nc3c(F)cccc3s2)o1 [Example 1760],< 500
17,"CN(C)CCn1nccc1C(=O)N1CCc2[nH]cnc2[C@H]1c1nc2c(F)cccc2s1 [Example 1761, (S)-(1-(2-(dimethylamino)ethyl)-1H-pyrazol-5-yl)(4-(4-fluorobenzo[d]thiazol-2-yl)-6,7-dihydro-1H-imidazo[4,5-c]pyridin-5(4H)-yl)methanone]",500 to 1000
18,"CN(C)CCn1nccc1C(=O)N1CCc2[nH]cnc2[C@@H]1c1nc2c(F)cccc2s1 [Example 1762, (R)-(1-(2-(dimethylamino)ethyl)-1H-pyrazol-5-yl)(4-(4-fluorobenzo[d]thiazol-2-yl)-6,7-dihydro-1H-imidazo[4,5-c]pyridin-5(4H)-yl)methanone]",1000 to 5000
19,"O=C(c1cn(CC(F)(F)F)nc1Cl)N1CCc2[nH]cnc2[C@@H]1c1nc2c(F)cccc2s1 [Example 1763, (R)-(3-chloro-1-(2,2,2-trifluoroethyl)-1H-pyrazol-4-yl)(4-(4-fluorobenzo[d]thiazol-2-yl)-6,7-dihydro-1H-imidazo[4,5-c]pyridin-5(4H)-yl)methanone]",1000 to 5000
20,"O=C(c1cn(CC(F)(F)F)nc1Cl)N1CCc2[nH]cnc2[C@H]1c1nc2c(F)cccc2s1 [Example 1764, (S)-(3-chloro-1-(2,2,2-trifluoroethyl)-1H-pyrazol-4-yl)(4-(4-fluorobenzo[d]thiazol-2-yl)-6,7-dihydro-1H-imidazo[4,5-c]pyridin-5(4H)-yl)methanone]",500 to 1000
21,O=C(c1cnn(-c2ccccn2)c1Cl)N1CCc2[nH]cnc2[C@H]1c1nc2c(F)cccc2s1 [Example 1765],500 to 1000
22,"O=C(c1cnn(-c2ccccn2)c1Cl)N1CCc2[nH]cnc2[C@@H]1c1nc2c(F)cccc2s1 [Example 1766, (R)-(5-chloro-1-(pyridin-2-yl)-1H-pyrazol-4-yl)(4-(4-fluorobenzo[d]thiazol-2-yl)-6,7-dihydro-1H-imidazo[4,5-c]pyridin-5(4H)-yl)methanone]",1000 to 5000
23,"O=C(c1nnc(-c2ccc(C(F)(F)F)cc2)o1)N1CCc2[nH]cnc2[C@@H]1c1nc2ccccc2s1 [Example 1767, (R)-(4-(benzo[d]thiazol-2-yl)-6,7-dihydro-1H-imidazo[4,5-c]pyridin-5(4H)-yl)(5-(4-(trifluoromethyl)phenyl)-1,3,4-oxadiazol-2-yl)methanone]",1000 to 5000
24,O=C(c1nnc(-c2ccc(C(F)(F)F)cc2)o1)N1CCc2[nH]cnc2[C@H]1c1nc2ccccc2s1 [Example 1768],500 to 1000
25,O=C(c1cn(-c2ccccn2)nc1Cl)N1CCc2[nH]cnc2[C@H]1c1nc2c(F)cccc2s1 [Example 1769],500 to 1000
26,"O=C(c1cn(-c2ccccn2)nc1Cl)N1CCc2[nH]cnc2[C@@H]1c1nc2c(F)cccc2s1 [Example 1770, (R)-(3-chloro-1-(pyridin-2-yl)-1H-pyrazol-4-yl)(4-(4-fluorobenzo[d]thiazol-2-yl)-6,7-dihydro-1H-imidazo[4,5-c]pyridin-5(4H)-yl)methanone]",1000 to 5000
27,"O=C(c1oc(OCCC(F)(F)F)nc1C(F)F)N1CCc2[nH]cnc2[C@@H]1c1nc2ccccc2s1 [Example 1771, (R)-(4-(benzo[d]thiazol-2-yl)-6,7-dihydro-1H-imidazo[4,5-c]pyridin-5(4H)-yl)(4-(difluoromethyl)-2-(3,3,3-trifluoropropoxy)oxazol-5-yl)methanone]",< 500
28,O=C(c1oc(OCCC(F)(F)F)nc1C(F)F)N1CCc2[nH]cnc2[C@H]1c1nc2ccccc2s1 [Example 1772],< 500
29,"CC(C)(O)c1nc(C(F)F)c(C(=O)N2CCc3[nH]cnc3[C@H]2c2nc3c(F)cccc3s2)o1 [Example 1773, (S)-(4-(difluoromethyl)-2-(2-hydroxypropan-2-yl)oxazol-5-yl)(4-(4-fluorobenzo[d]thiazol-2-yl)-6,7-dihydro-1H-imidazo[4,5-c]pyridin-5(4H)-yl)methanone]",< 500
30,"CC(C)(O)c1nc(C(F)F)c(C(=O)N2CCc3[nH]cnc3[C@@H]2c2nc3c(F)cccc3s2)o1 [Example 1774, (R)-(4-(difluoromethyl)-2-(2-hydroxypropan-2-yl)oxazol-5-yl)(4-(4-fluorobenzo[d]thiazol-2-yl)-6,7-dihydro-1H-imidazo[4,5-c]pyridin-5(4H)-yl)methanone]",1000 to 5000
